# Measured values taken from US20230159449A1, “LIPID FORMULATIONS CONTAINING NUCLEIC ACIDS AND METHODS OF TREATMENT FOR CYSTIC FIBROSIS” (Arcturus Therapeutics, Inc., priority 2021, published 2023).
# System: FRT cells
# Experiment: Transepithelial conductance (Gt) in Air-Liquid Interface culture of transfected FRT cells
# Type: cell-based, rat
# Details: FRT cells transfected with 2099.1 or 1835.1; sequential Forskolin, VX770, Inh-172
# Experimental: Further studies were conducted to assess the activity of hCFTR proteins expressed by selected mRNA constructs and whether these can properly open and close to allow proper ion transport. In these studies, an Air-Liquid Interface (ALI) cell culture model of FRT cells was used to transfect an unformulated subset of codon-optimized hCFTR mRNAs at different doses ranging from 0.5 μg-2 μg of mRNA (the 2 μg dose is not shown) into the FRT cells. ALI is a method of cell culture by which polarized cells are generated with their basal surfaces in contact with media, and the top of the cellular layer is exposed to the air. This model helps to mimic the cellular structure of in vivo airways. At 24 hours post-transfection, transepithelial conductance (Gt) of the cells over time was measured as an indicator of CFTR activity. Initially, Gt was measured with the transfected or control cells unperturbed. Then, a sequential process of CFTR activation (channel opening), enhancement (gating promotion) and closing of the CFTR channels was performed. The hCFTR constructs used in this study were 1835.1 (SEQ ID NO: 53), 2093.1 (SEQ ID NO: 66), 2095.1 (SEQ ID NO: 68), 2096.1 (SEQ ID NO: 69), and 2099.1 (SEQ ID NO: 72). In addition, controls were performed using a reference sequence of construct 764.1 (SEQ ID NO: 47) and untransfected cells. […]
row,Structure (SMILES),change in Gt on introduction of the agent
1,"O=C(O)c1ccc(C=C2SC(=S)N(c3cccc(C(F)(F)F)c3)C2=O)cc1 [Inh-172, reference compound]",decline in Gt
2,"CC(C)(C)c1cc(C(C)(C)C)c(NC(=O)c2c[nH]c3ccccc3c2=O)cc1O [VX770, reference compound]",second increase in Gt
